Data taken from patent US7556828B2, “Pharmaceutical composition for treatment of BPH and preparation thereof” (priority 2003, dated 2009).
Marks after values point to notes of the source that are not given here.

Legend:
[1] = tested on: otic swelling caused by mixed inflammatory solution of croton oil; test: Otic swelling caused by mixed inflammatory solution of croton oil; type: in vivo, mice; details: 20 mg/kg once a day for 5 days
Description: 1. Impact on Otic Swelling Caused by Mixed Inflammatory Solution of Croton Oil. […] The treatments were administered to the mice once a day for 5 days. […] Four hours after inflammation, the mice were killed with a disjointed cervical vertebra method. The two ears were cut along the auricle baseline. Equal parts of the two ears (by area) were cut off and weighed on weighing scales to test twisting force. The degree of swelling/inflammation was obtained by subtracting the weight of the right ear from the weight of the left ear. The degrees of swelling between the control (contrast) groups and the test groups were analyzed statistically and the swelling inhibition rate was obtained.

tampon granuloma = test: Tampon granuloma of rats; type: in vivo; details: 20 mg/kg once a day for 7 days
Description: Impact on Tampon Granuloma of Rats The same experimental materials and animals as in Experimental Example 2 were used. However, sixty (60) 150-180 g male rats were used. Under ether anesthesia and normal disinfection, two±1 mg sterilized tampons were embedded under the inguinal skins on either side of the bodies. […] The treatments were administered into the rats' stomachs once a day for 7 days. On the eighth day, the rats were killed via a disjointed cervical vertebra method. The tampons were removed and placed in a 60° C. oven for 12 hours and then weighed.

[2] = tested on: prostate hyperplasia caused by testosterone propionate; test: Prostate hyperplasia caused by testosterone propionate in rats, comparison of anti-prostate hyperplasia medicaments (Experimental Example 1); type: in vivo, Wistar rats; details: for Prostate Gland Factors, Sum of three lobes (anterior, head and posterior lobes) / Inhibition rate % (Anterior lobe) / Inhibition rate % (Sum of three lobes): 30 days; for Inhibition rate % (Anterior lobe) / Inhibition rate % (Sum of three lobes): vs contrast group; for Prostate Gland Factors, Anterior lobe: once a day for 30 days, castrated rats + testosterone propionate 5 mg/Kg
Description: The effect of anti-prostate hyperplasia medicaments and the composition of the present invention in rats on prostate hyperplasia caused by testosterone propionate was evaluated as discussed below.
• 1. PROSCAR (5-α-reductase inhibitor): tablets, produced by Merck & Co., Inc., (UK) Co., prepared as 0.5 mg/ml medicament. • 2. Saw Palmetto tablets, produced by Zhejiang Conba Pharmaceutical Co. Ltd., prepared with distilled water into […]. • 3. Longbishu Capsules: produced by SHIJIAZHUAN KEDI Pharmaceutical Co., Ltd., prepared with distilled water into 0.18 g/ml medical liquid. • 4. The final extract of Example 9, prepared into […] medical liquid. • 5. Estradiol Benzoate injection • 6. Testosterone propionate injection Test Method and Results
Six 130 g-150 g male Wistar rats were anaesthetized with ether. The testes of each rat were removed under axenic conditions, and the test rats were bred for a week after operation. The rats were divided at random into 6 groups, with 6 rats in each group. All groups of animals were hyped each day with 5 mg/Kg testosterone propionate dissolved in prepared peanut oil. The control (contrast) groups were administered a physiological salt solution. The test groups were administered a treatment of 5 mg/Kg PROSCAR, 5 g/Kg Saw Palmetto, 1.8 g/Kg longbishu, and 6 g/Kg of the final extract obtained in Example 9 The treatment took the form of a1 ml/100 g medicament; for hypodermic injections of 50 μg/Kg estradiol benzoate, the volume was […], administered once a day for 30 days. 24 hours after the final treatment, all the rats were killed. The whole prostate glands were anatomized and placed in formalin. Extraneous fat was cut away from the prostate glands and the liquid on the surface was dried with filter papers. The prostate glands were then weighed with a tissue balance to calculate the weight.

[3] = tested on: testosterone propionate-induced prostate hyperplasia; test: Testosterone propionate-induced prostate hyperplasia in rats (Experimental Example 5); type: in vivo, Wistar rats
Description: Impact on Testosterone Propionate-Induced Prostate Hyperplasia in Rats
The same experimental materials and animals as in Experimental Example 2 were used. However, fifty (50) 130-150 g male Wistar rats were used. Under ether anesthesia and in sterilized surroundings, both testes of each rat were removed. The rats were then bred for a week after the operation. Next, the rats were randomly divided into 5 groups of 10 rats each. Each group of animals were hyped with 5 mg/kg testosterone propionate dissolved in prepared oil once a day. During the same time period, each group was also given one of the treatments: the control (contrast) group was administered a physiological saline solution; three test groups were administered a dose (1.5, 3 and 6 g/kg) of the extract from Example 9 in a preparation of 1 m/100 g. The positive control (contrast) group was hyped with 50 μg/kg estradiol benzoate in a volume of 0.05 ml/100 g, once a day for 30 days. After the last treatment, the rats were killed and their whole prostate glands were anatomized. The prostate glands were placed in formalin. All the fat was cut away from the prostate glands after they were removed from the formalin. The remaining formalin on the prostate gland surface was dried with filter papers. The prostate glands were then placed in 70% ethanol and fixed for 24 hours. Next, the prostate glands were removed from the ethanol and placed on filter papers. The anterior, head and posterior lobes of the prostate glands were separated and weighed on a weighing scale to test twisting force. The transverse diameter, diameter and height of the anterior lobes of the prostate glands were measured with a two-foot vernier. The volume of the anterior lobe of a prostate gland was obtained by multiplying the values of the three measurements. Finally, the anterior lobes were examined with tectology, and the diameter of the prostate gland cavity and the height of the glandular epithelium cells were measured. Non-pairing t-examinations among the groups were conducted for all indexes. The values of the treatment groups were compared to the control (contrast) groups in order to determine the average difference.

[4] = dose 50 g/Kg (so in the source), hypodermic
[5] = 50 μg/kg once a day for 30 days
[6] = estradiol benzoate 50 μg/kg, 30 days, vs control

## CC(=O)OCC(=O)[C@@]1(O)CC[C@H]2[C@@H]3CCC4=CC(=O)CC[C@]4(C)[C@H]3[C@@H](O)C[C@@]21C [Hydrocortisone, Hydrocortisone acetate]
[1]
  Inhabitation rate %: 46.77%
[1]; 4 hours after croton oil
  Swelling degree (mg) (x ± SD): 9.50 ± 2.93 mg
Tampon granuloma
  Inhibition rate %: 42.43%
  Weight of tampon granuloma (mg x ± SD): 26.45 ± 2.61 mg

## CC(C)(C)NC(=O)[C@H]1CC[C@H]2[C@@H]3CC[C@H]4NC(=O)C=C[C@]4(C)[C@H]3CC[C@]12C [PROSCAR]
[2]; dose 5 mg/Kg
  Prostate Gland Factors, Sum of three lobes (anterior, head and posterior lobes): 453.4 ± 59.1 mg/100 g
  Inhibition rate % (Anterior lobe): 42.3** %
  Inhibition rate % (Sum of three lobes): 37.1** %
  Prostate Gland Factors, Anterior lobe: 164.2 ± 31.4 mg/100 g

## C[C@]12CC[C@@H]3c4ccc(OC(=O)c5ccccc5)cc4CC[C@H]3[C@@H]1CC[C@@H]2O [estradiol benzoate, Estradiol Benzoate]
[2]; [4]
  Prostate Gland Factors, Sum of three lobes (anterior, head and posterior lobes): 585.3 ± 80.5 mg/100 g
  Inhibition rate % (Anterior lobe): 36.7** %
  Inhibition rate % (Sum of three lobes): 18.8** %
  Prostate Gland Factors, Anterior lobe: 180.1 ± 55.8 mg/100 g
[3]; [5]
  Volume of anterior lobe (cm3): 0.42 ± 0.12 cm3
  rat prostate factors, Anterior lobe: 127.2 ± 23.4 mg/100 g
  rat prostate factors, Head lobe: 51.2 ± 10.7 mg/100 g
[3]; 30 days after treatment, microscopic examination
  hyperplasia of the diameter of the glandular cavity of prostate anterior and head lobes (histology): inhibit hyperplasia
[3]; [6]
  inhibition rate for head lobes (weight): 30.2%
  inhibition rate for posterior lobe (weight): 12.5%
  inhibition rate for prostate anterior lobe (weight): 35.3%
  inhibition rate, volume of prostate anterior lobe: 45.5%
